Assay results published in patent US7632666B2 (priority 2005, dated 2009).

Columns and labels:
[1] = molecular target: haloalkane dehalogenase DhlA (Xanthobacter autotrophicus, UniProt P22643); type: biochemical, Xanthobacter autotrophicus GJ10
[2] = molecular target: haloalkane dehalogenase DhaA (Rhodococcus rhodochrous, UniProt P0A3G2); type: biochemical, Rhodococcus rhodochrous NCIMB 13064
[3] = molecular target: haloalkane dehalogenase LinB (Sphingobium indicum, UniProt D4Z2G1); type: biochemical, Sphingomonas paucimobilis UT26
haloalkane dehalogenase LinB, sequence (D4Z2G1 whole entry): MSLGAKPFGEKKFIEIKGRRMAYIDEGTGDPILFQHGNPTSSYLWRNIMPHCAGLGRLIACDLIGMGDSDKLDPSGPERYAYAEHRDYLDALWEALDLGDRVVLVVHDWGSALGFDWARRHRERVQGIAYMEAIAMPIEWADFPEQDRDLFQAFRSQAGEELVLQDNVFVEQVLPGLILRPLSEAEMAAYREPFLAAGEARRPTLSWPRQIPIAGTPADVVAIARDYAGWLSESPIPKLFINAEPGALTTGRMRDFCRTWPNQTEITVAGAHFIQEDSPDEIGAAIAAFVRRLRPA

[4] = molecular target: T1, haloalkane dehalogenase DbjA (Bradyrhizobium diazoefficiens, UniProt P59337); type: biochemical, Bradyrhizobium japonicum USDA110
T1 sequence (P59337 whole entry): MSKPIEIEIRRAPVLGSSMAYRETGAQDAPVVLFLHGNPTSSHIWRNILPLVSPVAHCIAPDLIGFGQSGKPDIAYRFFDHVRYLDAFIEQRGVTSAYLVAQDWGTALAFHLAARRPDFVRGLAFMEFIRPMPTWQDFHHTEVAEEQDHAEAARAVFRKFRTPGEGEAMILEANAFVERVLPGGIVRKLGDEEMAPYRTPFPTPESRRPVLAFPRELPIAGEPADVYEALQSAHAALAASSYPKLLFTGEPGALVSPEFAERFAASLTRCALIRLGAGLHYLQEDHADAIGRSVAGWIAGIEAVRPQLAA

[5] = molecular target: T1, haloalkane dehalogenase DbjA; type: biochemical, Bradyrhizobium japonicum USDA110; conditions: for Relative enzyme activity (%) 5% of solvent / Relative enzyme activity (%) 10% of solvent / Relative enzyme activity (%) 20% of solvent: pH 8.6
[6] = molecular target: haloalkane dehalogenase LinB wild type (Sphingobium indicum, UniProt D4Z2G1); type: biochemical, Sphingomonas paucimobilis UT26
haloalkane dehalogenase LinB wild type, sequence (D4Z2G1 whole entry): as the sequence (D4Z2G1 whole entry) above

[7] = molecular target: haloalkane dehalogenase LinB L177A (Sphingobium indicum, UniProt D4Z2G1, L177A); type: biochemical
haloalkane dehalogenase LinB L177A, sequence (D4Z2G1 whole entry L177A, looked up): as the sequence (D4Z2G1 whole entry) above, with L177A counted along it

[8] = molecular target: haloalkane dehalogenase LinB L177C (Sphingobium indicum, UniProt D4Z2G1, L177C); type: biochemical
haloalkane dehalogenase LinB L177C, sequence (D4Z2G1 whole entry L177C, looked up): as the sequence (D4Z2G1 whole entry) above, with L177C counted along it

[9] = molecular target: haloalkane dehalogenase LinB L177G (Sphingobium indicum, UniProt D4Z2G1, L177G); type: biochemical
haloalkane dehalogenase LinB L177G, sequence (D4Z2G1 whole entry L177G, looked up): as the sequence (D4Z2G1 whole entry) above, with L177G counted along it

[10] = molecular target: haloalkane dehalogenase LinB L177F (Sphingobium indicum, UniProt D4Z2G1, L177F); type: biochemical
haloalkane dehalogenase LinB L177F, sequence (D4Z2G1 whole entry L177F, looked up): as the sequence (D4Z2G1 whole entry) above, with L177F counted along it

[11] = molecular target: haloalkane dehalogenase LinB L177K (Sphingobium indicum, UniProt D4Z2G1, L177K); type: biochemical
haloalkane dehalogenase LinB L177K, sequence (D4Z2G1 whole entry L177K, looked up): as the sequence (D4Z2G1 whole entry) above, with L177K counted along it

[12] = molecular target: haloalkane dehalogenase LinB L177T (Sphingobium indicum, UniProt D4Z2G1, L177T); type: biochemical
haloalkane dehalogenase LinB L177T, sequence (D4Z2G1 whole entry L177T, looked up): as the sequence (D4Z2G1 whole entry) above, with L177T counted along it

[13] = molecular target: haloalkane dehalogenase LinB L177W (Sphingobium indicum, UniProt D4Z2G1, L177W); type: biochemical
haloalkane dehalogenase LinB L177W, sequence (D4Z2G1 whole entry L177W, looked up): as the sequence (D4Z2G1 whole entry) above, with L177W counted along it

[14] = molecular target: haloalkane dehalogenase LinB L177D (Sphingobium indicum, UniProt D4Z2G1, L177D); type: biochemical
haloalkane dehalogenase LinB L177D, sequence (D4Z2G1 whole entry L177D, looked up): as the sequence (D4Z2G1 whole entry) above, with L177D counted along it

[15] = molecular target: haloalkane dehalogenase LinB L177H (Sphingobium indicum, UniProt D4Z2G1, L177H); type: biochemical
haloalkane dehalogenase LinB L177H, sequence (D4Z2G1 whole entry L177H, looked up): as the sequence (D4Z2G1 whole entry) above, with L177H counted along it

[16] = molecular target: haloalkane dehalogenase LinB L177M (Sphingobium indicum, UniProt D4Z2G1, L177M); type: biochemical
haloalkane dehalogenase LinB L177M, sequence (D4Z2G1 whole entry L177M, looked up): as the sequence (D4Z2G1 whole entry) above, with L177M counted along it

[17] = molecular target: haloalkane dehalogenase LinB L177Q (Sphingobium indicum, UniProt D4Z2G1, L177Q); type: biochemical
haloalkane dehalogenase LinB L177Q, sequence (D4Z2G1 whole entry L177Q, looked up): as the sequence (D4Z2G1 whole entry) above, with L177Q counted along it

[18] = molecular target: haloalkane dehalogenase LinB L177R (Sphingobium indicum, UniProt D4Z2G1, L177R); type: biochemical
haloalkane dehalogenase LinB L177R, sequence (D4Z2G1 whole entry L177R, looked up): as the sequence (D4Z2G1 whole entry) above, with L177R counted along it

[19] = molecular target: haloalkane dehalogenase LinB L177S (Sphingobium indicum, UniProt D4Z2G1, L177S); type: biochemical
haloalkane dehalogenase LinB L177S, sequence (D4Z2G1 whole entry L177S, looked up): as the sequence (D4Z2G1 whole entry) above, with L177S counted along it

[20] = molecular target: haloalkane dehalogenase LinB L177V (Sphingobium indicum, UniProt D4Z2G1, L177V); type: biochemical
haloalkane dehalogenase LinB L177V, sequence (D4Z2G1 whole entry L177V, looked up): as the sequence (D4Z2G1 whole entry) above, with L177V counted along it

[21] = molecular target: haloalkane dehalogenase LinB L177Y (Sphingobium indicum, UniProt D4Z2G1, L177Y); type: biochemical
haloalkane dehalogenase LinB L177Y, sequence (D4Z2G1 whole entry L177Y, looked up): as the sequence (D4Z2G1 whole entry) above, with L177Y counted along it

haloalkane dehalogenase DhlA, sequence (P22643 whole entry): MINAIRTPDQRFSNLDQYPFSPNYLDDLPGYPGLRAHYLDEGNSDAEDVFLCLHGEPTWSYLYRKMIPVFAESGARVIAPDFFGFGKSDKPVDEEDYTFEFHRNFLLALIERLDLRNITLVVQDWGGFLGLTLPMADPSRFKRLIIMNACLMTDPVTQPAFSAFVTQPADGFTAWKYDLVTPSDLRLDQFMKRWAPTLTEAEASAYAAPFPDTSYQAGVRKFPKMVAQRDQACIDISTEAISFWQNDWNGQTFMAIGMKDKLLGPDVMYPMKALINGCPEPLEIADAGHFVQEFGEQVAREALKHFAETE
haloalkane dehalogenase DhaA, sequence (P0A3G2 whole entry): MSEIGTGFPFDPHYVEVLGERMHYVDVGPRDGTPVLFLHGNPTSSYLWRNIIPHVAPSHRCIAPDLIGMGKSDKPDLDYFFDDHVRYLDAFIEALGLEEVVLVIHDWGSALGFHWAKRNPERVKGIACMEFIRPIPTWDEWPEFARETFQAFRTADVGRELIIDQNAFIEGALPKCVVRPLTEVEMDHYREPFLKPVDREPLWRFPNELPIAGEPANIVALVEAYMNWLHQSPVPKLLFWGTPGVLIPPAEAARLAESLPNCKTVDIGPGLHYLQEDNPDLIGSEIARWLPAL

`CCC(Br)CBr` (racemic) [1,2-dibromobutane] was tested, and the “E-values DhlA” value [1] was 1.1, the “E-values DhaA” value [2] was 2 and the “E-values LinB” value [3] was 10. For the same compound, the “E-values DbjA” value [4] was 2.7.

For `CC(Cl)CCl` (stereo not drawn) [1,2-dichloropropane], the “E-values DhlA” value [1] was 2.

For `CC(C)(C)C(Br)CBr` (racemic) [1,2-dibromo-3,3-dimethylbutane], the “E-values LinB” value [3] was 1.1.

With `CO` [Methanol] the “DbjA activity in the presence of the solvent in the reaction medium” value [5] was “increasing activity”, the “Relative enzyme activity (%) 5% of solvent” value [5] was 93.5 ± 0.9% and the “Relative enzyme activity (%) 10% of solvent” value [5] was 128.7 ± 3.5%. For the same compound, the “Relative enzyme activity (%) 20% of solvent” value [5] was 160.7 ± 2.0%.

For `BrCCBr` [1,2-dibromoethane], the “Relative activities (% of wt) wt1” value [6] was 100 % of wt, the “Relative activities (% of wt) wt2” value [6] was 100 % of wt and the “Relative activities (% of wt) L177A” value [7] was 155 % of wt. For the same compound, the “Relative activities (% of wt) L177C” value [8] was 52 % of wt, the “Relative activities (% of wt) L177G” value [9] was 78 % of wt and the “Relative activities (% of wt) L177F” value [10] was 70 % of wt. The “Relative activities (% of wt) L177K” value [11] was 97 % of wt, the “Relative activities (% of wt) L177T” value [12] was 107 % of wt and the “Relative activities (% of wt) L177W” value [13] was 7 % of wt. For the same compound, the Km [14] was 14 mM, the “Relative activities (% of wt) L177D” value [14] was 77 % of wt and the “Relative activities (% of wt) L177H” value [15] was 55 % of wt. The “Relative activities (% of wt) L177M” value [16] was 126 % of wt, the “Relative activities (% of wt) L177Q” value [17] was 123 % of wt and the “Relative activities (% of wt) L177R” value [18] was 68 % of wt. For the same compound, the “Relative activities (% of wt) L177S” value [19] was 84 % of wt, the “Relative activities (% of wt) L177V” value [20] was 84 % of wt and the “Relative activities (% of wt) L177Y” value [21] was 16 % of wt.

For `COC(=O)C(Br)CCBr` (racemic) [methyl 2,4-dibromobutyrate], the “E-values DhlA” value [1] was 1.6, the “E-values DhaA” value [2] was 1 and the “E-values LinB” value [3] was 1.9. For the same compound, the “E-values DbjA” value [4] was 1.3.

In the case of `CC(Br)CCBr` (racemic) [1,3-dibromobutane], the “E-values DhlA” value [1] is reported as 2, the “E-values DhaA” value [2] is reported as 1.3 and the “E-values LinB” value [3] is reported as 4.6. The “E-values DbjA” value [4] was 1.4.

`CCCCBr` [1-bromobutane] was tested, and the “Relative activities (% of wt) wt1” value [6] was 100 % of wt, the “Relative activities (% of wt) wt2” value [6] was 100 % of wt and the “Relative activities (% of wt) L177A” value [7] was 356 % of wt. The “Relative activities (% of wt) L177C” value [8] was 243 % of wt, the “Relative activities (% of wt) L177G” value [9] was 380 % of wt and the “Relative activities (% of wt) L177F” value [10] was 243 % of wt. The “Relative activities (% of wt) L177K” value [11] was 201 % of wt, the “Relative activities (% of wt) L177T” value [12] was 553 % of wt and the “Relative activities (% of wt) L177W” value [13] was 60 % of wt. For the same compound, the “Relative activities (% of wt) L177D” value [14] was 347 % of wt, the “Relative activities (% of wt) L177H” value [15] was 224 % of wt and the “Relative activities (% of wt) L177M” value [16] was 227 % of wt. The “Relative activities (% of wt) L177Q” value [17] was 458 % of wt, the “Relative activities (% of wt) L177R” value [18] was 165 % of wt and the “Relative activities (% of wt) L177S” value [19] was 381 % of wt. The “Relative activities (% of wt) L177V” value [20] was 132 % of wt and the “Relative activities (% of wt) L177Y” value [21] was 112 % of wt.

In the case of `CCCCC(C)Br` (racemic) [2-bromohexane], the “E-values DhaA” value [2] is reported as 4, the “E-values LinB” value [3] is reported as 12 and the “E-values DbjA” value [4] is reported as 35.

For `CC#N` [acetonitrile], the “Relative enzyme activity (%) 5% of solvent” value [5] was 117.5 ± 8.9%, the “Relative enzyme activity (%) 10% of solvent” value [5] was 124.1 ± 1.0% and the “Relative enzyme activity (%) 20% of solvent” value [5] was 0.0 ± 0.0%.

With `CCCCCC(C)Br` (racemic) [2-bromoheptane] the “E-values DhlA” value [1] was 2.4, the “E-values DhaA” value [2] was 2.9 and the “E-values LinB” value [3] was 2.8. The “E-values DbjA” value [4] was 28.
